Test: log P by HPLC on reversed-phase column (C18), EEC Directive 79/831 Annex V.A8
Type: physicochemical
Conditions: Method A: 40° C., 0.1% aqueous formic acid and acetonitrile
Experimental: In table 1, the log P values were determined in accordance with EEC Directive 79/831 Annex V.A8 by HPLC (High Performance Liquid Chromatography) on a reversed-phase column (C18), using the methods described below:
Method A: temperature: 40° C.; mobile phases: 0.1% aqueous formic acid and acetonitrile; linear gradient from 10% acetonitrile to 95% acetonitrile;
Method B: temperature: 40° C.; mobile phases: 0.001 molar ammonium acetate solution in water and acetonitrile; linear gradient from 10% acetonitrile to 95% acetonitrile.
Calibration was carried out using unbranched alkan-2-ones (comprising 3 to 16 carbon atoms) with known log P values (determination of the log P values by the retention times using linear interpolation between two successive alkanones). lambda-max-values were determined using UV-spectra from 200 nm to 400 nm and the peak values of the chromatographic signals.

In order of falling logP:
1. CC[Si](C)(C)c1c(C#N)cccc1Oc1c(C)nc2c(F)c(F)ccc2c1[Si](C)(C)CC [I.043]  7.36
2. C[Si](C)(C)c1c(F)cccc1Oc1cc2ccccc2nc1C1CC1 [I.061]  6.90
3. CCOc1nc2ccccc2cc1Oc1cccc(F)c1[Si](C)(C)C [I.060]  6.79
4. CSc1nc2ccccc2cc1Oc1cccc(F)c1[Si](C)(C)C [I.064]  6.79
5. CC[Si](CC)(CC)c1ccccc1Oc1cnc2ccccc2n1 [I.074]  6.43
6. Cc1nc2c(F)c(F)ccc2nc1Oc1c(Cl)cccc1[Si](C)(C)C [I.106]  6.07
7. Cc1nc2c(F)c(F)ccc2cc1Oc1cccc(F)c1[Si](C)(C)c1ccccc1 [I.028]  6.01
8. CC(C)[Si](C)(C)c1ccccc1Oc1cnc2ccccc2n1 [I.075]  5.91
9. Cc1nc2ccccc2cc1Oc1ccc(Cl)cc1[Si](C)(C)C [I.134]  5.68
10. Cc1nc2ccccc2cc1Oc1ccc(C2CC2)cc1[Si](C)(C)C [I.136]  5.68
11. C=C[Si](C)(C)c1c(F)cccc1Oc1nc2ccc(F)c(F)c2nc1C [I.091]  5.62
12. C[Si](C)(c1ccc(Oc2ccccc2)cc1)c1ccccc1Cc1cnc2ccccc2c1 [I.016]  5.62
13. Cc1nc2c(F)c(F)ccc2nc1Oc1ccc(F)cc1[Si](C)(C)C [I.100]  5.57
14. Cc1nc2c(F)c(F)ccc2cc1Cc1ccccc1[Si](C)(C)C [I.040]  5.54
15. C=Cc1ccc(Oc2cc3ccccc3nc2C)c([Si](C)(C)C)c1 [I.137]  5.51
16. CC[Si](C)(C)c1ccccc1Oc1cnc2ccccc2n1 [I.076]  5.48
17. Cc1nc2c(F)c(F)ccc2cc1Oc1cc([N+](=O)[O-])ccc1[Si](C)(C)C [I.031]  5.34
18. C[Si](C)(C)c1c(F)cccc1Oc1cnc2c(F)c(F)ccc2c1 [I.021]  5.32
19. Cc1nc2ccccc2nc1Oc1ccccc1[Si](C)(C)C [I.110]  5.31
20. C[Si](C)(C)c1ccccc1Oc1cnc2c(F)c(F)ccc2n1 [I.079]  5.28
21. C[Si](C)(C)c1c(F)cccc1Oc1cnc2ccccc2n1 [I.069]  5.22
22. Cc1nc2ccccc2cc1Oc1cccc(F)c1[Si](C)(C)C [I.046]  5.08
23. C[Si](C)(F)c1c(F)cccc1Oc1cnc2c(F)c(F)ccc2n1 [I.083]  5.01
24. C[Si](C)(CCl)c1c(F)cccc1Oc1cnc2ccccc2c1 [I.007]  5.00
25. C[Si](C)(Cc1ccccc1)c1ccccc1Cc1cnc2ccccc2c1 [I.142]  4.94
26. Cc1nc2c(F)c(F)ccc2nc1Oc1cccc(F)c1[Si](C)(C)F [I.092]  4.75
27. C[Si](C)(C)c1c(F)cccc1Oc1cnc2c(F)cnn2c1 [I.128]  4.61
28. Cc1nc2ccccc2cc1Oc1cccc(F)c1[SiH](C)C [I.053]  4.56
29. C[Si](C)(C)c1ccccc1Nc1cnc2c(F)c(F)ccc2n1 [I.084]  4.49
30. C[Si](C)(C)c1c(F)cccc1C(=O)c1cnc2ccccc2c1 [I.017]  4.49
31. Cc1nc2c(F)c(F)ccc2nc1Oc1cccc(OC(F)(F)F)c1[Si](C)(C)O [I.095]  4.34
32. Cc1nc2ccccc2cc1Oc1cccc(OC(F)(F)F)c1Br [IIa.25]  4.30
33. C[Si](C)(C)c1c(F)cccc1Oc1cnc2ccnn2c1 [I.122]  4.23
34. C[Si](C)(c1ccccc1)c1ccccc1Cc1cnc2cccnc2c1 [I.141]  4.14
35. C[Si](C)(C)c1ccccc1Oc1cnc2ccnn2c1 [I.123]  4.11
36. C[Si](C)(C)c1ccccc1Cc1cnc2ccccc2c1 [I.012]  4.06
37. Cc1nc2c(F)c(F)ccc2nc1Oc1cccc(Cl)c1[Si](C)(C)O [I.090]  3.94
38. C[Si](C)(C)c1c(F)cccc1Oc1cc2ccccc2nc1O [I.059]  3.85
39. Cc1ccc([Si](C)(C)O)c(Oc2nc3ccc(F)c(F)c3nc2C)c1 [I.096]  3.76
40. COc1cccc(Oc2cc3ccc(F)c(F)c3nc2C)c1[Si](C)(C)O [I.033]  3.69
41. CC[Si](C)(C)c1ccccc1Oc1cnc2c(c1)CCCC2 [I.041]  3.68
42. Cc1nc2c(F)c(F)ccc2nc1Oc1ccc(F)cc1[Si](C)(C)O [I.098]  3.63
43. Cc1c(Nc2ccccc2[Si](C)(C)C)cc2ccccc2[n+]1[O-] [I.058]  3.62
44. COc1cccc(Oc2nc3ccc(F)c(F)c3nc2C)c1[Si](C)(C)O [I.094]  3.60
45. C[Si](C)(O)c1c(F)cccc1Oc1cnc2c(F)c(F)ccc2n1 [I.082]  3.33
46. Cc1nc2ccccc2nc1Oc1cccc(F)c1[Si](C)(C)O [I.109]  3.25
47. C[Si](C)(O)c1c(F)cccc1Oc1cnc2sccc2c1 [I.119]  3.09
48. Cc1nc2ccccc2cc1Cc1ccccc1[Si](C)(C)c1ccccc1 [I.140]  2.88
49. Cc1nc2ccccc2cc1Oc1cccc(Cl)c1[Si](C)(C)O [I.051]  2.80
50. C[Si](C)(O)c1c(F)cccc1Oc1cnc2ccsc2c1 [I.117]  2.80
51. C[Si](C)(C)c1ccccc1Oc1cnc2nccn2c1 [I.124]  2.78
52. Cc1nc2ccccc2cc1Nc1ccc(F)cc1[Si](C)(C)C [I.055]  2.63

Same assay, conditions: logP Method A

In order of falling logP:
1. Cc1nc2c(F)c(F)ccc2nc1Oc1ccc(Cl)cc1Br [IIb.11]  5.16
2. Cc1cccc(Oc2nc3ccc(F)c(F)c3nc2C)c1Br [IIb.12]  4.85
3. Cc1nc2c(F)c(F)ccc2nc1Oc1cccc(Cl)c1Br [IIb.18]  4.82
4. CCOc1nc2ccccc2cc1Oc1cccc(F)c1 [VIIa.02]  4.74
5. Cc1nc2c(F)c(F)ccc2nc1Oc1ccc(F)cc1Br [IIb.10]  4.54
6. Cc1nc2c(F)c(F)ccc2nc1Oc1cccc(F)c1Br [IIb.16]  4.44
7. Cc1nc2c(F)c(F)ccc2nc1Oc1ccccc1Br [IIb.02]  4.38
8. Cc1nc2ccccc2nc1Oc1cccc(F)c1Br [IIb.17]  4.11
9. Cc1nc2c(F)c(F)ccc2cc1Oc1cc([N+](=O)[O-])ccc1Br [II.06A]  4.04
10. Fc1cccc(Oc2cnc3c(F)c(F)ccc3n2)c1Br [IIb.15]  3.97
11. Fc1ccc2nc(Oc3ccccc3Br)cnc2c1F [IIb.01]  3.92
12. N#Cc1cc(Br)c(Oc2cnc3c(F)c(F)ccc3n2)cc1F [IIb.19]  3.81
13. O=[N+]([O-])c1c(F)cccc1Oc1cnc2c(F)c(F)ccc2c1 [Va.01]  3.35
14. Nc1ccccc1Oc1cnc2c(F)c(F)ccc2c1 [IVa.03]  2.71
15. Nc1ccccc1Nc1cnc2ccccc2c1 [IVa.01]  1.28

Same assay, conditions: reversed-phase HPLC column (C18), Method A: 40° C., 0.1% aqueous formic acid and acetonitrile

In order of falling chromatographic logP:
1. C[SiH](c1ccccc1)c1c(Oc2cccc(F)c2)c(Cl)nc2ccccc12 (centres unmarked) [2-chloro-3-(3-fluorophenoxy)-4-[methyl(phenyl)silyl]quinoline]  5.9
2. Fc1cccc(Nc2cc3ccccc3nc2C(F)F)c1Br [IIa.22, N-(2-bromo-3-fluorophenyl)-2-(difluoromethyl)quinolin-3-amine]  4.34
3. Cc1nc2c(F)c(F)ccc2cc1Oc1ccccc1Br [IIa.07, 3-(2-bromophenoxy)-7,8-difluoro-2-methylquinoline]  4.25
4. Fc1ccc(Oc2cnc3c(Cl)cccc3c2)c(Br)c1 [IIa.11, 3-(2-bromo-4-fluorophenoxy)-8-chloroquinoline]  4.18
5. COc1cccc(Oc2cc3ccc(F)c(F)c3nc2C)c1Br [IIa.14, 3-(2-bromo-3-methoxyphenoxy)-7,8-difluoro-2-methylquinoline]  4.11
6. Fc1cccc(Oc2cc3ccccc3nc2Cl)c1 [VIIa.01, 2-chloro-3-(3-fluorophenoxy)quinoline]  3.99
7. Cc1nc2ccccc2cc1Oc1cccc(Cl)c1Br [IIa.21, 3-(2-bromo-3-chlorophenoxy)-2-methylquinoline]  3.99
8. Cc1nc2c(F)cccc2cc1Oc1ccccc1Br [IIa.05, 3-(2-bromophenoxy)-8-fluoro-2-methylquinoline]  3.96
9. Cc1nc2ccccc2cc1Oc1ccccc1Br [IIa.08, 3-(2-bromophenoxy)-2-methylquinoline]  3.96
10. Fc1ccc2cc(Oc3ccccc3Br)cnc2c1F [IIa.06, 3-(2-bromophenoxy)-7,8-difluoroquinoline]  3.92
11. Ic1ccccc1Oc1cnc2ccccc2c1 [IIa.02, 3-(2-iodophenoxy)quinoline]  3.71
12. Fc1cccc2cc(Oc3ccccc3Br)cnc12 [IIa.04, 3-(2-bromophenoxy)-8-fluoroquinoline]  3.61
13. Cc1nc2ccccc2cc1Oc1cccc(F)c1Br [IIa.18, 3-(2-bromo-3-fluorophenoxy)-2-methylquinoline]  3.58
14. Brc1ccccc1Oc1cnc2ccccc2c1 [IIa.03, 3-(2-bromophenoxy)quinoline]  3.47

Same assay, conditions: reversed-phase HPLC column (C18), logP Method A

In order of falling chromatographic logP:
1. CC[Si](CC)(CC)c1ccccc1O [IX.01A]  4.72
2. Cc1nc2ccccc2cc1Oc1cccc(CCCl)c1Br [II.08A]  3.99
3. Fc1cccc(Oc2cc3ccccc3nc2Cl)c1 [VIIa.01, 2-chloro-3-(3-fluorophenoxy)quinoline]  3.99
4. O=Cc1cccc(Oc2cnc3c(F)c(F)ccc3n2)c1Br [II.01B]  3.48
5. O=C(c1cccc(F)c1)c1cnc2ccccc2c1 [VII.02A]  2.73
6. OCc1cccc(Oc2cnc3ccccc3c2)c1I [II.02A]  2.59
7. [O-][S+](c1cccc(F)c1)c1cnc2ccccc2c1 (centres unmarked) [VII.04A]  2.1

Same assay, conditions: reversed-phase HPLC column (C18), logP Method B

Compound Ic1c(COC2CCCCO2)cccc1Oc1cnc2ccccc2c1 (centres unmarked) [II.05A] has a chromatographic logP of 4.56.

Source: patent US10683311B2 (priority 2015, dated 2020)
